In US20260250320A1, “LIPIDATED PEPTIDE INHIBITORS OF INTERLEUKIN-23 RECEPTOR” (Janssen Pharmaceutica NV, priority 2023, published 2026):
*1 amine or outer side, *2 acyl side, *3 side chain or, on linkers, in order; H or OH if unused. Where a SMILES comes first, the peptide text is derived from it. Bridges are numbered along the chain shown (N, C = ends). [ ]: non-standard residue; d: D form. The star is where a group is joined. X32 = O=C(O)CCCCCCCCCCCCCCCCC(=O)N[C@@H](CCC(=O)NCCOCCOCCOCCOCCOCCOCCOCCOCCOCCOCCOCCCOCCC(=O)*)C(=O)O; X9 = O=C(O)CCCCCCCCCCCCCCCCC(=O)N[C@@H](CCC(=O)NCCOCCOCCOCCOCCOCCOCCOCCOCCOCCOCCOCCCCCC(=O)*)C(=O)O; X8 = CC(=O)[C@H](CCCCNC(=O)CC[C@H](NC(=O)CCCCCCCCCCCCCCCCC(=O)O)C(=O)O)N(C)*; Me3N+CH2CH2(OCH2CH2)4CO = C[N+](C)(C)CCOCCOCCOCCOCCC(=O)*; Me3N+(CH2)2O(CH2)2O(CH2)2CO = C[N+](C)(C)CCOCCOCCC(=O)*; Trp(7-Me) = Cc1cccc2c(C[C@H](N)C(=O)O)c[nH]c12; C18 diacid = O=C(O)CCCCCCCCCCCCCCCCC(=O)*; X6 = CN(CC[C@H](N[*:1])C(=O)[*:2])[*:3]; γGlu = O=C(O)[C@H](CCC(=O)[*:2])N[*:1]; 2Nal = N[C@@H](Cc1ccc2ccccc2c1)C(=O)O; AEF = NCCOc1ccc(C[C@H](N)C(=O)O)cc1; X7 = C[N+](C)(C)CCOCCOCCOCCOC(=O)*; 3Pal = N[C@@H](Cc1cccnc1)C(=O)O; Lys(Me) = CNCCCC[C@H](N)C(=O)O; Pen = CC(C)(S)[C@H](N)C(=O)O; Thp = NC1(C(=O)O)CCOCC1; X1 = C[N+](C)(C)CCCCC*; AEEA = NCCOCCOCC(=O)O; Sar = CNCC(=O)O

Legend:
[1] = system: IL-23-stimulated phosphorylated STAT3 in peripheral blood mononuclear cells (PBMCs); experiment: PBMC pSTAT3 Assay; format: cell-based; conditions: PBMCs from healthy donors; 30 min preincubation with peptide; IL-23 5 ng/mL for 30 min; phospho-STAT3 by MSD
In short: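 Phospho-STAT3 quantified by Meso Scale assay in lysates of PBMCs exposed to IL-23 (5 ng/mL, 30 min, 37 °C) after 30 min peptide pretreatment. Cells were cryopreserved donor PBMCs activated 4 days with anti-CD3 plus IL-1β (100 ng/mL) and starved ~4 h; IC50 reported.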

[2] = target: T1, IL-23R (Homo sapiens, UniProt Q5VWK5); experiment: IL23R Reporter Assay; format: cell-based; conditions: HEK293 cells containing IL-23R, IL-12Rβ1 and STAT-inducible firefly luciferase reporter; 10 ng/mL IL-23 (EC90); 5 h
T1 construct: HEK293 cells containing IL-23R, IL-12Rβ1 and a firefly luciferase reporter gene driven by a STAT-inducible promoter (Promega); host or cells: HEK293
T1 sequence (Q5VWK5 24-629): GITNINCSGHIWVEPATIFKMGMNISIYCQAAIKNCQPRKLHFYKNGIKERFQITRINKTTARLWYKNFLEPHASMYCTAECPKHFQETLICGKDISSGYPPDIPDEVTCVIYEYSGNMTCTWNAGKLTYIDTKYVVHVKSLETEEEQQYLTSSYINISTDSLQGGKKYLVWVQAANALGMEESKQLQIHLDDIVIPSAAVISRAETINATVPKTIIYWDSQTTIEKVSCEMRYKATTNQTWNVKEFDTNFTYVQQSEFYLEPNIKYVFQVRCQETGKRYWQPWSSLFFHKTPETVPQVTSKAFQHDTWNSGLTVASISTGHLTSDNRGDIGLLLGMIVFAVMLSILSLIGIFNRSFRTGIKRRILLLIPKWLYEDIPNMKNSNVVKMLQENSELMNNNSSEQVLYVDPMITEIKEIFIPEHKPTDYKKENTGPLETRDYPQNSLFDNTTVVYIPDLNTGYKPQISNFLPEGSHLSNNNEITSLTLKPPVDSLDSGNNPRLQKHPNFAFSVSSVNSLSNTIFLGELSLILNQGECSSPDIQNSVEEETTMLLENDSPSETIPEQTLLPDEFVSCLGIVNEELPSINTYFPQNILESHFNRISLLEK
In short: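 IC50 values were fitted with a 4-parameter Hill equation to luciferase signal, scaled between IL-23-only wells (0% inhibition) and 30 μM reference inhibitor (100%). The readout was a STAT-inducible reporter in IL-23R/IL-12Rβ1 HEK293 cells, stimulated with added 10 ng/mL IL-23 (EC90) for 5 h at 37° C and developed with BioGlo.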

IC50 [2] [nM] | SMILES | IC50 [1] [nM]
50 to 500 | CC(=O)[C@H](CCCCNC(=O)CC[C@H](NC(=O)CCCCCCCCCCCCCCCCC(=O)O)C(=O)O)N(C)C(=O)[C@H](Cc1cccnc1)NC(=O)[C@H](CC(N)=O)NC(=O)[C@H](CCC(=O)O)NC(=O)C1(NC(=O)[C@H](Cc2ccc3ccccc3c2)NC(=O)[C@H](Cc2ccc(OCCN)cc2)NC(=O)[C@H]2NC(=O)[C@H](CCN(C)C(=O)OCCOCCOCCOCC[N+](C)(C)C)NC(=O)[C@H](Cc3c[nH]c4c(C)cccc34)NC(=O)[C@H]([C@@H](C)O)NC(=O)[C@H](CC(=O)N(C)C)NC(=O)[C@@H](NC(=O)CCOCCOCCOCCOCC[N+](C)(C)C)C(C)(C)SSC2(C)C)CCOCC1 [compound 106, cPEG5aCO-Pen(3)-N(N(Me)2)-T-7MeW-Dab(NMecPEG5a)-Pen(3)-AEF-2Nal-THP-E-N-3Pya-NMeK(gEC18OH)-CONH2] ({Me3N+CH2CH2(OCH2CH2)4CO}-[Pen]D(NMe2)T[Trp(7-Me)][X6](X7)[Pen][AEF][2Nal][Thp]EN[3Pal]-X8; disulfide 1-6) | 0.5 to 5
< 50 | CC(=O)N(C)CCCC[C@@H]1NC(=O)[C@H](Cc2c[nH]c3c(C)cccc23)NC(=O)[C@H]([C@@H](C)O)NC(=O)[C@H](CC(=O)N(C)C)NC(=O)[C@@H](NC(=O)COCCOCCNC(=O)COCCOCCNC(=O)CC[C@H](NC(=O)CCCCCCCCCCCCCCCCC(=O)O)C(=O)O)C(C)(C)SSC(C)(C)[C@@H](C(=O)N[C@@H](Cc2ccc(OCCCCC[N+](C)(C)C)cc2)C(=O)N[C@@H](Cc2ccc3ccccc3c2)C(=O)NC2(C(=O)N[C@@H](CCCCN(C)C(C)=O)C(=O)N[C@@H](CC(N)=O)C(=O)N[C@@H](Cc3cccnc3)C(=O)N(C)CC(=O)N(C)C)CCOCC2)NC1=O [compound 118, HOC18gEPEG2PEG2CO-Pen(3)-N(N(Me)2)-T-7MeW-K(NMeAc)-Pen(3)-TMAPF-2Nal-THP-K(NMeAc)-N-3Pya-Sar-CON(Me)2] ({C18 diacid-γGlu-AEEA-AEEA}-[Pen]D(NMe2)T[Trp(7-Me)][Lys(Me)](Ac)[Pen]Y(X1)[2Nal][Thp][Lys(Me)](Ac)N[3Pal][Sar]-NMe2; disulfide 1-6) | < 0.5
< 50 | CC(=O)NCCCC[C@@H]1NC(=O)[C@H](Cc2c[nH]c3c(C)cccc23)NC(=O)[C@H]([C@@H](C)O)NC(=O)[C@H](CC(N)=O)NC(=O)[C@@H](NC(=O)[C@@H](CCCNC(=N)N)NC(C)=O)C(C)(C)SSC(C)(C)[C@@H](C(=O)N[C@@H](Cc2ccc(OCCN)cc2)C(=O)N[C@@H](Cc2ccc3ccccc3c2)C(=O)NC2(C(=O)N[C@@H](CCC(=O)O)C(=O)N[C@@H](CC(N)=O)C(=O)N[C@@H](Cc3cccnc3)C(=O)N(C)CC(=O)N[C@@H](CCCCNC(=O)CCOCCCOCCOCCOCCOCCOCCOCCOCCOCCOCCOCCOCCNC(=O)CC[C@H](NC(=O)CCCCCCCCCCCCCCCCC(=O)O)C(=O)O)C(N)=O)CCOCC2)NC1=O [compound 133, MeCO-r-Pen(3)-N-T-7MeW-K(Ac)-Pen(3)-AEF-2Nal-THP-E-N-3Pya-Sar-K(PEG12gEC18OH)-CONH2] (Ac-[dR][Pen]NT[Trp(7-Me)]K(Ac)[Pen][AEF][2Nal][Thp]EN[3Pal][Sar]K(X32)-NH2; disulfide 2-7) | < 0.5
< 50 | CC(=O)N(C)CCCC[C@@H]1NC(=O)[C@H](Cc2c[nH]c3c(C)cccc23)NC(=O)[C@H]([C@@H](C)O)NC(=O)[C@H](CCCCNC(=O)CCCCCOCCOCCOCCOCCOCCOCCOCCOCCOCCOCCOCCNC(=O)CC[C@H](NC(=O)CCCCCCCCCCCCCCCCC(=O)O)C(=O)O)NC(=O)[C@@H](NC(=O)CCOCCOCC[N+](C)(C)C)C(C)(C)SSC(C)(C)[C@@H](C(=O)N[C@@H](Cc2ccc(OCCCCC[N+](C)(C)C)cc2)C(=O)N[C@@H](Cc2ccc3ccccc3c2)C(=O)NC2(C(=O)N[C@@H](CCCCN(C)C(C)=O)C(=O)N[C@@H](CC(N)=O)C(=O)N[C@@H](Cc3cccnc3)C(=O)N(C)CC(=O)N(C)C)CCOCC2)NC1=O [compound 115, cPEG3aCO-Pen(3)-K(PEG12gEC20OH)-T-7MeW-K(NMeAc)-Pen(3)-TMAPF-2Nal-THP-K(NMeAc)-N-3Pya-Sar-CON(Me)2] ({Me3N+(CH2)2O(CH2)2O(CH2)2CO}-[Pen]K(X9)T[Trp(7-Me)][Lys(Me)](Ac)[Pen]Y(X1)[2Nal][Thp][Lys(Me)](Ac)N[3Pal][Sar]-NMe2; disulfide 1-6) | 0.5 to 5
